Results on 15 compounds are retold here after patent US9056832B2, “Pyridine compounds and the users thereof” (Purdue Pharma L.P., priority 2010, dated 2015).

A value given as a limit tells only on which side of the number the result lay.

human Nav1.7, sequence (Q15858 other isoform, or with tags, fused parts or gaps): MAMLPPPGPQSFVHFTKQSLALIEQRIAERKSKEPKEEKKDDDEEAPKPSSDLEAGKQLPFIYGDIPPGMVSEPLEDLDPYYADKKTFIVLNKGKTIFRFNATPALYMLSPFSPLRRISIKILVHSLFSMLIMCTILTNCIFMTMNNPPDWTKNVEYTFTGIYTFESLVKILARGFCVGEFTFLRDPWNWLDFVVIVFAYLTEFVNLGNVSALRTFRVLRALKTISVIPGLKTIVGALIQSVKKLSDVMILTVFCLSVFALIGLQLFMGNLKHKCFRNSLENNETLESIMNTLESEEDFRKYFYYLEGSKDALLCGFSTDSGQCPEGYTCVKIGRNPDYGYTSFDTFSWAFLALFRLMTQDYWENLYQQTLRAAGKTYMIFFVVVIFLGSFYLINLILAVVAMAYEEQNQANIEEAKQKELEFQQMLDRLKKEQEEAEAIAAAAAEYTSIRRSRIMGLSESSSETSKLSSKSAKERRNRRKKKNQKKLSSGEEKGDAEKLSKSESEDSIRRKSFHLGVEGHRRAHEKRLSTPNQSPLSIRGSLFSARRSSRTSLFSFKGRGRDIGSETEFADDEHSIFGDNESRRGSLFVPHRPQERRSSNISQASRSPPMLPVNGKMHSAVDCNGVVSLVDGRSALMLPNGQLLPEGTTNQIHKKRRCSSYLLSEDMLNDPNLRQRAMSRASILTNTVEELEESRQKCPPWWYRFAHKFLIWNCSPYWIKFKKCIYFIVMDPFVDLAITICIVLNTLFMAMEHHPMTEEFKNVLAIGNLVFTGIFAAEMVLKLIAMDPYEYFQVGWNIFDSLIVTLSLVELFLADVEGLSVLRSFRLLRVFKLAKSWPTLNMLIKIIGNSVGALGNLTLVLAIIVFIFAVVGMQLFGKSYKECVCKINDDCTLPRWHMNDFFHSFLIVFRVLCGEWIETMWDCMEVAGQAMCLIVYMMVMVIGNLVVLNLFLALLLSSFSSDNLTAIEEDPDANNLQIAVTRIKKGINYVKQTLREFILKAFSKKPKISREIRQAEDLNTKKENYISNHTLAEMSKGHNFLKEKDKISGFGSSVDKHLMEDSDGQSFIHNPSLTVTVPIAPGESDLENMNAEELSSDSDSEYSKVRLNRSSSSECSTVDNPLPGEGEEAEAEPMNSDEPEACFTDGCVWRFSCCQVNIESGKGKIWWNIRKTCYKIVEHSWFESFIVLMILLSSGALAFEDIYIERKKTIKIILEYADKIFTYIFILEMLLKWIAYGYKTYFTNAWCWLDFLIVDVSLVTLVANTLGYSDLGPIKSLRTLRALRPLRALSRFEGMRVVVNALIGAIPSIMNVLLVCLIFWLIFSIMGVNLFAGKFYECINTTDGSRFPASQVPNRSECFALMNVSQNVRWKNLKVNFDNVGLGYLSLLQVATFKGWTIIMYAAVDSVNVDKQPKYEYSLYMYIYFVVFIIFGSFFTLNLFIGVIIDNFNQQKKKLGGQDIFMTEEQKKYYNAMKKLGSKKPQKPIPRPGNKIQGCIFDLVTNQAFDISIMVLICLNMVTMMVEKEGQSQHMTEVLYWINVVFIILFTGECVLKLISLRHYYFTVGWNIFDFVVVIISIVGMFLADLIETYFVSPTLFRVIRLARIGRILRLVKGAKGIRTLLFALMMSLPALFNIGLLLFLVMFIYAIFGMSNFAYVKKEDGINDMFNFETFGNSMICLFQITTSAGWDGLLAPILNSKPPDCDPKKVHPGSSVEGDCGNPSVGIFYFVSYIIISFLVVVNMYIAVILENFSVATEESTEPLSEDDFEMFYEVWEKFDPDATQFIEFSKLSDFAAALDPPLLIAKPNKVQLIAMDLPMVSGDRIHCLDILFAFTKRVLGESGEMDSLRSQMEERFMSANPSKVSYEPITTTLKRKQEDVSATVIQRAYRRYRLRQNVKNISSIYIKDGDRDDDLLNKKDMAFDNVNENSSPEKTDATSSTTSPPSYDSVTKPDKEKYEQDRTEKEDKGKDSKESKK

The first assay has as its target human Nav1.7 (Homo sapiens (Human), UniProt Q15858). The assay is described as follows: FLIPR or FLIPR TETRA sodium dye assay with KCl and test article pre-incubation. In kind it is cell-based. Conditions: read-out: Nav1.7 IC50 (μM) ± SEM.
As to `N#Cc1ccc(Oc2ccc(-c3cccc([C@H](O)CO)n3)cc2)c(C(F)(F)F)c1` [compound 22, (S)-4-(4-(6-(1,2-dihydroxyethyl)pyridin-2-yl)phenoxy)-3-(trifluoromethyl) benzonitrile], the IC50 (usually the concentration that gives 50% inhibition) was found to be 3.33 ± 0.2 µM.

Turning to `N#Cc1ccc(Oc2ccc(-c3cc([C@H](O)CO)cc(C(N)=O)n3)cc2)cc1C(F)(F)F` [compound 31, (S)-6-(4-(4-cyano-3-(trifluoromethyl)phenoxy)phenyl)-4-(1,2-dihydroxyethyl) picolinamide], the IC50 is 0.61 ± 0.1 µM.

Turning to `N#Cc1ccc(Oc2ccc(-c3cc([C@H](O)CO)cc(C(N)=O)n3)cc2)c(C(F)(F)F)c1` [compound 35, (S)-6-(4-(4-cyano-2-(trifluoromethyl)phenoxy)phenyl)-4-(1,2-dihydroxyethyl) picolinamide], the IC50 was determined as 0.4 ± 0.07 µM.

In the case of `N#Cc1ccc(Oc2ccc(-c3cc([C@@H](O)CO)cc(C(N)=O)n3)cc2)c(C(F)(F)F)c1` [compound 36, (R)-6-(4-(4-cyano-2-(trifluoromethyl)phenoxy)phenyl)-4-(1,2-dihydroxyethyl) picolinamide], the IC50 came to 0.22 ± 0.04 µM.

The same assay, now with this note: recombinant human Nav1.7 in HEK293 cells; CoroNa Green sodium dye; veratridine + scorpion venom; read-out: Nav1.7 IC50 (μM) ± SEM.
As for `OC[C@H](O)c1cccc(-c2ccc(Oc3ccc(C(F)(F)F)cn3)cc2)n1` [compound 23, (R)-1-(6-(4-((5-(trifluoromethyl)pyridin-2-yl)oxy)phenyl)pyridin-2-yl)ethane-1,2-diol], the IC50 came out at 4.89 ± 2.48 µM.

`OC[C@@H](O)c1cccc(-c2ccc(Oc3ccc(C(F)(F)F)cn3)cc2)n1` [compound 24, (S)-1-(6-(4-((5-(trifluoromethyl)pyridin-2-yl)oxy)phenyl)pyridin-2-yl)ethane-1,2-diol]: the half-maximal inhibitory concentration (IC50) came to 6.49 ± 2.94 µM.

As to `Cc1ccc(Oc2ccc(-c3cccc(C(O)CO)n3)cc2)cn1` (stereo not drawn) [compound 27, 1-(6-(4-((6-methylpyridin-3-yl)oxy)phenyl)pyridin-2-yl)ethane-1,2-diol], the concentration for half-maximal inhibition (IC50) is more than 20 µM.

On to `OCC(O)c1cccc(-c2ccc(Oc3ncccc3C(F)(F)F)cc2)n1` (stereo not drawn) [compound 29, 1-(6-(4-((3-(trifluoromethyl)pyridin-2-yl)oxy)phenyl)pyridin-2-yl) ethane-1,2-diol], for which the IC50 came out at 2.65 ± 0.37 µM.

For the compound `NC(=O)c1ccc(Oc2ccc(-c3cc([C@H](O)CO)cc(C(N)=O)n3)cc2)c(C(F)(F)F)c1` [compound 32, (S)-6-(4-(4-carbamoyl-2-(trifluoromethyl)phenoxy)phenyl)-4-(1,2-dihydroxyethyl) picolinamide], the half-inhibitory concentration (IC50) was more than 20 µM.

With `N#Cc1cc(Oc2ccc(-c3cc([C@H](O)CO)cc(C(N)=O)n3)cc2)ccc1C(F)(F)F` [compound 33, (S)-6-(4-(3-cyano-4-(trifluoromethyl)phenoxy)phenyl)-4-(1,2-dihydroxyethyl) picolinamide], the IC50 turned out to be 0.5 ± 0.07 µM.

With `N#Cc1cc(Oc2ccc(-c3cc([C@@H](O)CO)cc(C(N)=O)n3)cc2)ccc1C(F)(F)F` [compound 34, (R)-6-(4-(3-cyano-4-(trifluoromethyl)phenoxy)phenyl)-4-(1,2-dihydroxyethyl) picolinamide], the half-maximal inhibitory concentration (IC50) turned out to be 0.38 ± 0.08 µM.

`N#Cc1ccc(Oc2ccc(-c3cc([C@H](O)CO)cc(C(N)=O)n3)cc2)cc1` [compound 37, (S)-6-(4-(4-cyanophenoxy)phenyl)-4-(1,2-dihydroxyethyl) picolinamide]: the half-maximal inhibitory concentration (IC50) is 0.44 ± 0.1 µM.

`N#Cc1ccc(Oc2ccc(-c3cc([C@@H](O)CO)cc(C(N)=O)n3)cc2)cc1` [compound 38, (R)-6-(4-(4-cyanophenoxy)phenyl)-4-(1,2-dihydroxyethyl) picolinamide]: the IC50 was 0.35 ± 0.07 µM.

With `NC(=O)c1cc([C@H](O)CO)cc(-c2ccc(Oc3cc(Cl)ccc3F)cc2)n1` [compound 39, (S)-6-(4-(5-chloro-2-fluorophenoxy)phenyl)-4-(1,2-dihydroxyethyl) picolinamide], the IC50 amounted to 0.13 ± 0.03 µM.

For the compound `NC(=O)c1cc([C@H](O)CO)cc(-c2ccc(Oc3ccc(F)cc3)cc2)n1` [compound 41, (S)-4-(1,2-dihydroxyethyl)-6-(4-(4-fluorophenoxy)phenyl)picolinamide], the half-maximal inhibitory concentration (IC50) is 0.24 ± 0.04 µM.
